As a reminder, the IC50 is the concentration that gives 50% inhibition.

Results on nine molecules are retold here after ChEMBL document CHEMBL3297664, “Identification and characterization of a new reversible MAGL inhibitor” (Bioorg Med Chem, 2014).

Where only a bound is given, the exact number is not on record here.

The target in assay [1] is T1, Monoglyceride lipase (Homo sapiens, UniProt Q99685).
T1 sequence (Q99685 whole entry): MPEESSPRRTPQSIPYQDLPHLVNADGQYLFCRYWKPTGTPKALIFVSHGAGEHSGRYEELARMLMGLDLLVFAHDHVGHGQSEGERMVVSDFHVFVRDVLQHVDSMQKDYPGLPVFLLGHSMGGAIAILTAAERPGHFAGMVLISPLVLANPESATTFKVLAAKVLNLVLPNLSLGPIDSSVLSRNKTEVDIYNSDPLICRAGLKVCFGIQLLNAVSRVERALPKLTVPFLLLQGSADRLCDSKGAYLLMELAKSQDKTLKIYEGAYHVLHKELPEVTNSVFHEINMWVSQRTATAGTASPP
Briefly: Inhibition of human recombinant MAGL using 4-nitrophenylacetate as substrate after 30 mins.

Assay [2] in a line: Cytotoxicity against human COV318 cells assessed as growth inhibition after 96 hrs. Particulars: COV318, 96 h.
A further assay has as its system MCF7. Briefly: Cytotoxicity against human MCF7 cells assessed as growth inhibition after 96 hrs. Particulars: MCF7, 96 h.
Assay [3] is described as follows: Cytotoxicity against human MSC assessed as growth inhibition after 96 hrs.
A short description of assay [4]: Cytotoxicity against human OVCAR3 cells assessed as growth inhibition after 96 hrs. Particulars: OVCAR-3, 96 h.
The test system of a further assay is MDA-MB-231. Briefly: Cytotoxicity against human MDA-MB-231 cells assessed as growth inhibition after 96 hrs. Particulars: MDA-MB-231, 96 h.
The target of assay [5] is T1, Monoglyceride lipase. Kind of assay: Inhibition of human recombinant MAGL using 4-nitrophenylacetate as substrate preincubated for 60 mins followed by substrate addition.
Assay [6] has as its target T1, Monoglyceride lipase. Briefly: Inhibition of human recombinant MAGL using 4-nitrophenylacetate as substrate.
In assay [7] the target is T1, Monoglyceride lipase. Kind of assay: Inhibition of human recombinant MAGL using 4-nitrophenylacetate as substrate preincubated for 30 mins followed by substrate addition.

Consider `COc1ccc(-c2nnn(CC(=O)N3CCN(c4ccc(F)cc4)CC3)n2)cc1`, for which, at Monoglyceride lipase [1], the IC50 is more than 500 µM.

As for `O=C(Cc1ccccc1)N1CCC(C(=O)N2CCN(c3ccc(F)cc3)CC2)CC1`, the IC50 on Monoglyceride lipase [1] is more than 500 µM.

As to `CCOc1ccc(N2CC(C(=O)Nc3ccc(C(C)=O)cc3)CC2=O)cc1` (stereo not given), at Monoglyceride lipase [1], the IC50 was more than 500 µM.

On to `COc1ccc(-c2nnc(SCC(=O)N3CCN(c4ccc(OC)cc4)CC3)o2)cc1`, for which the 50% inhibitory concentration (IC50) at Monoglyceride lipase [1] was more than 500 µM.

As to `O=C(c1ccc([N+](=O)[O-])cc1)c1ccc2c(c1)C(=O)N(c1cccnc1)C2=O`, at Monoglyceride lipase [1], the IC50 is more than 500 µM.

For `COc1ccc(C(=O)N2CCC(C(=O)c3ccc(Cl)cc3)CC2)cc1`, the IC50 in assay [2] was 73.9 µM; with MCF7, 19.9 µM; in assay [3] it was more than 300 µM; in [4] it was 50.7 µM; in the assay on MDA-MB-231, 75.3 µM.

For the molecule `O=C(Cn1nnc(-c2ccc(N3CCOCC3)cc2)n1)N1CCN(c2ccccc2)CC1`, the IC50 on Monoglyceride lipase [1] is more than 500 µM.

Consider `COc1ccc(CNC(=O)c2ccc3nc(-c4ccoc4)c(-c4ccoc4)nc3c2)cc1`, for which the IC50 on Monoglyceride lipase [1] is more than 500 µM.

For the molecule `COc1nn(-c2ccc(NC(=O)OCc3ccccc3)c(C)c2)c(=O)o1`, the IC50 on Monoglyceride lipase [5] stood at 0.009 µM; in [2], 107 µM; at Monoglyceride lipase [6] it was 0.146 µM; in the assay with MCF7, 4.2 µM; in [3] it was 276 µM; on Monoglyceride lipase [7] it was 0.026 µM. Further, the results for the IC50 (in [4]; in the assay on MDA-MB-231) were more than 79.8 µM and 46 µM, respectively.
